In patent US12145927B2 (BRISTOL-MYERS SQUIBB COMPANY, priority 2018, dated 2024):

These compounds were tested against T1, indoleamine 2,3-dioxygenase (IDO) (Homo sapiens, UniProt P14902) (assay: HeLa cell-based indoleamine 2,3-dioxygenase (IDO) assay (IDO1 HeLa)). Conditions: HeLa cells, IFNγ 25 ng/mL, 48 hour incubation; kynurenine by absorbance at 480 nm.
T1 construct: replaced with media containing IFNγ (#285-IF/CF, R&D Systems) at a final concentration of 25 ng/mL; endogenous in cells; host or cells: HeLa (ATCC CCL-2), IFNγ-stimulated
T1 sequence (P14902 whole entry): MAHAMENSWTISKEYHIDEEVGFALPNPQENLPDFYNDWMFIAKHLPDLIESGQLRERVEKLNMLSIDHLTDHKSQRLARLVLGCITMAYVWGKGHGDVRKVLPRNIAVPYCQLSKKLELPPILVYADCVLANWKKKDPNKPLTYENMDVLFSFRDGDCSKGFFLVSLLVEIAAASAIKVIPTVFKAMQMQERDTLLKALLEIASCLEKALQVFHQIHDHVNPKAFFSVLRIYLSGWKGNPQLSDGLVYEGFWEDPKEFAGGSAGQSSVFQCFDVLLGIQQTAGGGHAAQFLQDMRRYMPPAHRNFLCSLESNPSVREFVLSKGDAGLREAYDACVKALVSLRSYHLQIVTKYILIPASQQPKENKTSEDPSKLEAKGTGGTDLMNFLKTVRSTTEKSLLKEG
Method: Assessment of inhibitor activity in HeLa cell-based indoleamine 2,3-dioxygenase (IDO) assay:
HeLa (ATCC® CCL-2) cells were obtained from the ATCC® and cultured in Dulbecco's Modified Eagle Medium supplemented with 4.5 g/L glucose, […] (#10-013-CV, Corning), 2 mM L-alanyl-L-glutamine dipeptide (#35050-061, Gibco), 100U/mL penicillin, 100 μg/mL streptomycin (#SV30010, HyClone) and 10% fetal bovine serum (#SH30071.03 HyClone). Cells were maintained in a humidified incubator at 37° C. in 5% CO2.
IDO activity was assessed as a function of kynurenine production as follows: HeLa cells were seeded in a 96-well culture plate at a density of 5,000 cells/well and allowed to equilibrate overnight. After 24 hours, the media was aspirated and replaced with media containing IFNγ (#285-IF/CF, R&D Systems) at a final concentration of 25 ng/mL. A serial dilution of each test compound was added to the cells in a total volume of 200 μL of culture medium. After a further 48 hour incubation, 170 μL of supernatant was transferred from each well to a fresh 96-well plate. 12.1 μL of 6.1N trichloroacetic acid (#T0699, Sigma-Aldrich) was added to each well and mixed, followed by incubation at 65° C. for 20 minutes to hydrolyze N-formylkynurenine, the product of indoleamine 2,3-dioxygenase, to kynurenine. The reaction mixture was then centrifuged for 10 mins at 500×g to sediment the precipitate. 100 μL of the supernatant was transferred from each well to a fresh 96-well plate. 100 μl of 2% (w/v) p-dimethylaminobenzaldehyde (#15647-7, Sigma-Aldrich) in acetic acid (#A6283, Sigma-Aldrich) was added to each well mixed and incubated at RT for 20 mins. Kynurenine concentrations were determined by measuring absorbance at 480 nm and calibrating against an L-kynurenine (#K8625, Sigma-Aldrich) standard curve using a SPECTRAMAX® M2e microplate reader (Molecular Devices). The percentage activity at each inhibitor concentration was determined and IC50 values assessed using nonlinear regression.

Structure (SMILES) | IC50
O=C(Nc1ccc(Cl)cc1F)Nc1cc(-c2ccccc2-c2nnn[nH]2)cc2c1OCC=CC2c1ccccc1 (racemic) [Example 105, (+/−)-1-(7-(2-(1H-tetrazol-5-yl)phenyl)-5-phenyl-2,5-dihydrobenzo[b]oxepin-9-yl)-3-(4-chloro-2-fluorophenyl)urea] | 54.7 nM
Cc1ccc(NC(=O)Nc2cc(-c3ccccc3-c3nnn[nH]3)cc3c2OC[C@@H](C)C[C@H]3c2ccccc2)cc1 (racemic) [Example 109, (+/−)-1-((cis)-7-(2-(1H-tetrazol-5-yl)phenyl)-3-methyl-5-phenyl-2,3,4,5-tetrahydrobenzo[b]oxepin-9-yl)-3-(p-tolyl)urea] | 5.9 nM
Cc1ccc(NC(=O)Nc2cc(-c3cc(F)ccc3C(=O)O)cc3c2OCCCC3c2ccccc2)cc1 (racemic) [Example 108, (+/−)-4-fluoro-2-(5-phenyl-9-(3-(p-tolyl)ureido)-2,3,4,5-tetrahydrobenzo[b]oxepin-7-yl)benzoic acid] | 164 nM

These compounds were tested against T2, human IDO1 (Homo sapiens, UniProt P14902) (assay: IDO inhibition assay in human IDO1/HEK293 cells (IDO1 HEK Human)). Conditions: HEK293 cells stably expressing human IDO1; 20 hours incubation; absorbance at 490 nm after Ehrlich reagent.
T2 construct: expressed in transfected cells
T2 sequence (P14902 whole entry): as above
Type: cell-based
Outline: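 HEK293 clones stably expressing human IDO1 (10,000 cells/well, phenol red-free RPMI, 10% FBS) were treated with compound for 20 hours at 37° C. After 0.2% TCA and 30 min at 50° C., kynurenine was read with Ehrlich reagent at 490 nm. IC50 was normalised to DMSO (0%) and 500 nM reference standard (100%).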

Structure (SMILES) | IC50
Cc1ccc(Nc2cc(-c3ccccc3-c3nnn[nH]3)cc3c2OCCCC3c2ccccc2)nc1 (single isomer, unassigned) [62 (En. 1), N-(7-(2-(1H-tetrazol-5-yl)phenyl)-5-phenyl-2,3,4,5-tetrahydrobenzo[b]oxepin-9-yl)-5-methylpyridin-2-amine] | 1810 nM
C=C[C@H]1Oc2c(NC(=O)Cc3ccc(C)cc3)cc(-c3ccccc3-c3nnn[nH]3)cc2[C@@H]1c1ccccc1 (racemic) [Example 91, (+/−)-N-((trans)-5-(2-(1H-tetrazol-5-yl)phenyl)-3-phenyl-2-vinyl-2,3-dihydrobenzofuran-7-yl)-2-(p-tolyl)acetamide] | 89 nM
C=C(C)C1Oc2c(NC(=O)Nc3ccc(C)cc3)cc(-c3ccc(OC)c(C(=O)O)c3)cc2C1c1ccccc1 (racemic) [Example 97] | 1800 nM
c1ccc(C2CCCOc3c(Nc4ccn5nccc5n4)cc(-c4ccccc4-c4nnn[nH]4)cc32)cc1 (single isomer, unassigned) [84 (En. 2), N-(7-(2-(1H-tetrazol-5-yl)phenyl)-5-phenyl-2,3,4,5-tetrahydrobenzo[b]oxepin-9-yl) pyrazolo[1,5-a]pyrimidin-5-amine] | 25.8 nM
Cc1csc(NC(=O)Nc2cc(-c3ccccc3-c3nnn[nH]3)cc3c2OCCCC3c2ccccc2)n1 (stereo not drawn) [Example 12, 1-(7-(2-(1H-tetrazol-5-yl)phenyl)-5-phenyl-2,3,4,5-tetrahydrobenzo[b]oxepin-9-yl)-3-(4-methylthiazol-2-yl)urea] | 1070 nM
O=C(Nc1ccc(C2CC2)cc1F)Nc1cc(-c2ccccc2-c2nnn[nH]2)cc2c1OCCCC2c1ccccc1 (stereo not drawn) [Example 6, 1-(7-(2-(1H-tetrazol-5-yl)phenyl)-5-phenyl-2,3,4,5-tetrahydrobenzo[b]oxepin-9-yl)-3-(4-cyclopropyl-2-fluorophenyl)urea] | 70 nM
Cc1ccc(NC(=O)Nc2cc(-c3ccccc3-c3nnn[nH]3)cc3c2OC(C)(C)C3c2ccccc2)cc1 (racemic) [Example 123, (±)-1-(5-(2-(1H-Tetrazol-5-yl)phenyl)-2,2-dimethyl-3-phenyl-2,3-dihydrobenzofuran-7-yl)-3-(p-tolyl)urea] | 6.3 nM
C=C(C)C1Oc2c(NC(=O)Nc3ccc(C)cc3)cc(-c3ccccc3C(=O)O)cc2C1c1ccccc1 (racemic) [Example 96] | 26 nM
Fc1ccc2nc(Nc3cc(-c4ccccc4-c4nnn[nH]4)cc4c3OCCCC4c3ccccc3)sc2c1 (single isomer, unassigned) [57 (En. 1), N-(7-(2-(1H-tetrazol-5-yl)phenyl)-5-phenyl-2,3,4,5-tetrahydrobenzo[b]oxepin-9-yl)-6-fluorobenzo[d]thiazol-2-amine] | 849 nM
Cc1ccc(CC(=O)Nc2cc(-c3ccccc3-c3nnn[nH]3)cc3c2OCCCC3C2CC2)cc1 (racemic) [37 (Rac), N-(7-(2-(1H-tetrazol-5-yl)phenyl)-5-cyclopropyl-2,3,4,5-tetrahydrobenzo[b]oxepin-9-yl)-2-(p-tolyl)acetamide] | 117 nM
Cc1ccc(NC(=O)Nc2cc(-c3cc(F)ccc3C(=O)O)cc3c2O[C@@H](C)[C@H]3c2ccccc2)cc1 (relative stereo) [Example 114, rel-4-fluoro-2-((2R,3R)-2-methyl-3-phenyl-7-(3-(p-tolyl)ureido)-2,3-dihydrobenzofuran-5-yl)benzoic acid] | 1300 nM
Cc1ccc(NC(=O)Nc2cc(-c3ccccc3-c3nnn[nH]3)cc3c2OCCCC3c2ccccc2)nc1 (single isomer, unassigned) [Example 3, 1-(7-(2-(1H-tetrazol-5-yl)phenyl)-5-phenyl-2,3,4,5-tetrahydrobenzo[b]oxepin-9-yl)-3-(5-methylpyridin-2-yl)urea] | 35.6 nM
Fc1ccc2oc(Nc3cc(-c4ccccc4-c4nnn[nH]4)cc4c3OCCCC4C3CC3)nc2c1 (stereo not drawn) [Example 27, N-(7-(2-(1H-tetrazol-5-yl)phenyl)-5-cyclopropyl-2,3,4,5-tetrahydrobenzo[b]oxepin-9-yl)-5-fluorobenzo[d]oxazol-2-amine] | 26.4 nM
C=CC1Oc2c(NC(=O)Nc3ccc(CC)cc3)cc(-c3ccccc3-c3nnn[nH]3)cc2C1CCC(F)(F)F (racemic) [Example 99] | 5.6 nM
Cc1ccc(NC(=O)Nc2cc(-c3ccccc3-c3nnn[nH]3)cc3c2O[C@H](C)[C@H]3c2ccccc2)cc1 (relative stereo) [Example 115, rel-1-((2R,3 S)-5-(2-(1H-tetrazol-5-yl)phenyl)-2-methyl-3-phenyl-2,3-dihydrobenzofuran-7-yl)-3-(p-tolyl)urea] | 28 nM
O=C(Nc1ccccc1F)Nc1cc(-c2ccccc2-c2nnn[nH]2)cc2c1OCCCC2c1ccc(F)cc1 (stereo not drawn) [Example 70, 1-(7-(2-(1H-tetrazol-5-yl)phenyl)-5-(4-fluorophenyl)-2,3,4,5-tetrahydrobenzo[b]oxepin-9-yl)-3-(2-fluorophenyl)urea] | 28.2 nM
C=CC1Oc2c(NC(=O)Nc3ccc(C)cc3)cc(-c3cc(F)ccc3C(=O)O)cc2C1c1ccccc1 (racemic) [Example 98] | 87 nM
Cc1ccc(NC(=O)Nc2cc(-c3ccccc3-c3nnn[nH]3)cc3c2O[C@@H](C)[C@@H]3CCC(F)(F)F)cc1 (relative stereo) [Example 118, rel-1-((2R,3S)-5-(2-(2H-tetrazol-5-yl)phenyl)-2-methyl-3-(3,3,3-trifluoropropyl)-2,3-dihydrobenzofuran-7-yl)-3-(p-tolyl)urea] | 23 nM
c1ccc(C2CCCOc3c(Nc4nc5ccccc5s4)cc(-c4ccccc4-c4nnn[nH]4)cc32)cc1 (single isomer, unassigned) [64 (En. 1), N-(7-(2-(1H-tetrazol-5-yl)phenyl)-5-phenyl-2,3,4,5-tetrahydrobenzo[b]oxepin-9-yl) benzo[d]thiazol-2-amine] | 422 nM
Cc1ccc(CC(=O)Nc2cc(-c3ccccc3-c3nnn[nH]3)cc3c2OCCCC3c2ccccc2)cc1 (single isomer, unassigned) [Example 2-2, N-(7-(2-(1H-tetrazol-5-yl)phenyl)-5-phenyl-2,3,4,5-tetrahydrobenzo[b]oxepin-9-yl)-2-(p-tolyl)acetamide] | 31.8 nM
C=C[C@H]1Oc2c(NC(=O)Nc3ccc(C)cc3)cc(-c3ccccc3-c3nnn[nH]3)cc2[C@@H]1c1ccccc1 (racemic) [Example 85, (+/−)-1-((trans)-5-(2-(1H-tetrazol-5-yl)phenyl)-3-phenyl-2-vinyl-2,3-dihydrobenzofuran-7-yl)-3-(p-tolyl)urea] | 32 nM
CC1CCOc2c(Nc3nc4ccccc4o3)cc(-c3ccccc3-c3nnn[nH]3)cc2C1c1ccccc1 (single isomer, unassigned) [Example 51, N-(7-(2-(1H-tetrazol-5-yl)phenyl)-4-methyl-5-phenyl-2,3,4,5-tetrahydrobenzo[b]oxepin-9-yl)benzo[d]oxazol-2-amine] | 3.8 nM
Cc1ccc(NC(=O)Nc2cc(-c3ccccc3-c3nnn[nH]3)cc3c2OC(C(C)C)C3c2ccccc2)cc1 (racemic) [Example 103] | 11 nM
C=CC1Oc2c(NC(=O)Nc3ccc(C)cc3)cc(C3(c4nnn[nH]4)CC3)cc2C1c1ccccc1 (racemic) [Example 112, (+/−)1-(5-(1-(1H-tetrazol-5-yl)cyclopropyl)-3-phenyl-2-vinyl-2,3-dihydrobenzofuran-7-yl)-3-(p-tolyl)urea] | 7900 nM
